Laboratory results as given in article PMC3783636 (ACS chemical biology, 2013).

What was measured:
[1] = known Zn(II) affinity; ref Supporting Information; cited from earlier work
trypsin = settings: oxidized, triple-stranded β-sheet fold; cited from earlier work
[2] = Midpoint potential determination in DTT redox buffers; settings: pH 7.0, 75 mM HEPES, DTTred/DTTox redox buffers −230 to −290 mV, 25 µM HD5red or HD5ox, anaerobic, 20 h, rt (ca. 22 °C), HPLC peak areas, global fit

Row | Molecule | Kd for Zn(II) of the sensor (range in words) [1] | also measured
1 | Zinpyr-4 [ZP4] | mid-picomolar | 
2 | O=C(O)c1ccccc1NN=C(N=Nc1cc(S(=O)(=O)O)ccc1O)c1ccccc1 [Zincon] | micromolar | 
3 | FluoZin-1 [FZ1] | micromolar | 
4 | HD5ox: oxidized form of HD5 with three disulfide bonds (peptide, UniProt Q01523 20-94, looked up, Defensin-5 oxidized, three disulfides) Defensin alpha 5: ESLQERADEATTQKQSGEDNQDLAISFAGNGLSALRTSGSQARATCYCRTGRCATRESLSGVCEISGRLYRLCCR |  | stability to trypsin (trypsin): resistant to degradation
5 | HD5: 32-residue cysteine-rich host-defense peptide; the redox couple HD5ox/HD5red (peptide, UniProt Q01523 20-94, looked up, Defensin-5) Defensin alpha 5: ESLQERADEATTQKQSGEDNQDLAISFAGNGLSALRTSGSQARATCYCRTGRCATRESLSGVCEISGRLYRLCCR |  | midpoint potential [2]: −257 mV
